In assay [1] the test system is salt-depleted, conscious marmosets. Put plainly: Marmoset blood pressure reduction on intravenous administration. The format is in vivo, Marmoset monkeys (Callithrix jacchus). As to conditions: 100 micrograms/kg intravenously. The method, then: The blood pressure reducing activity of the renin inhibitor compound of Example 1 was determined in vivo in Marmoset monkeys using the following procedure. Common Marmoset monkeys (Callithrix jacchus, Charles River, both sexes, body weight ca. 400 g) were placed on a modified high protein low sodium diet (Purina, St. Louis, Mo.) for 1 week. 24 hours prior to the administration of test compound, Lasix (5 mg/kg, im) was given. On the day of the test, the animal was anesthetized with isoflurane, body weight recorded, and the left femoral artery and vein were catheterized. The animal was allowed to regain consciousness and the title compound of Example 1 (100 micrograms/kg) was administered intravenously in 0.1 mL/kg polyethylene glycol 400 at time zero. Mean arterial blood pressure (MABP) in mmHg was then recorded every ten minutes until 120 minutes.

For assay [2], the target named is T1, renin (Marmoset Monkey plasma) (Callithrix jacchus, UniProt Q9TSZ1).
T1 construct: the animal plasma is the source of both the renin substrate and the renin enzyme; from tissue; host or cells: pooled marmoset plasma
T1 sequence (Q9TSZ1 61-400): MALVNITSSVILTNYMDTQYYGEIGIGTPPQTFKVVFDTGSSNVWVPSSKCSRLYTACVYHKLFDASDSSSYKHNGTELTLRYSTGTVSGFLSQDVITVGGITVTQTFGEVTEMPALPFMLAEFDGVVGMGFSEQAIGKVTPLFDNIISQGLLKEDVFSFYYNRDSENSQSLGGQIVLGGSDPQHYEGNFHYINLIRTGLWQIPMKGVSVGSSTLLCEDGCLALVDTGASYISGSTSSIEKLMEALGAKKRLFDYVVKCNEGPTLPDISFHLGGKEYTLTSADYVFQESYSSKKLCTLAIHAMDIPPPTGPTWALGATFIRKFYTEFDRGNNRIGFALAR
Put plainly: Renin inhibitor species specificity, marmoset plasma renin activity. Format: biochemical. As to the method:
(§1) Blood was collected in a 10 ml Becton Dickinson vacutainer tube with 0.1 ml of 15% EDTA (K3) solution (15 mg) from normal animals or high renin animals; i.e., those pre-treated with 5 mg/kg of Lasix® intramuscularly 2 times within a 6 hour interval 24 hours prior to bleeding. The blood was then centrifuged at 2500 RPM for 20 minutes and the plasma from the various species respectively pooled, aliquoted and stored in the freezer. The human plasma source was taking a prescription of an angiotensin converting enzyme inhibitor.
(§2) The plasma renin activity assay is a modification of the human renin inhibition test in that the animal plasma is the source of both the renin substrate and the renin enzyme. In a total volume of 0.1 ml, 90 mM Tris-acetate buffer, pH 7.5, 12 mM sodium EDTA, 0.012 mg/ml neomycin sulfate, 0.9 mg/ml bovine serum albumin, 1.61 mM phenylmethyl sulfonyl fluoride, 4 mM 8-hydroxyquinoline and 0.09 ml of the animal or human plasmas were incubated for 2 hours at 37° C. in a shaking water bath or at 4° C. in an ice bath in the presence or absence of renin inhibitors. The produced angiotensin I was determined by radioimmunoassay (New England Nuclear kit).
(§3) The amount of angiotensin I generated during the 2 hours at 4° C. was usually less than 5% of that activity produced at 37° C.; however, the 4° C. background values were nevertheless subtracted from the 37° C. ones for the 100% activity values. The renin inhibitors were assayed in duplicate using 5 concentrations and the data is expressed as a percent of the 100% total renin activity.

The target of another assay is T2, human renin (Homo sapiens, UniProt P00797).
T2 construct: purchased National Institute for Biological Standards, London
T2 sequence (P00797 67-406): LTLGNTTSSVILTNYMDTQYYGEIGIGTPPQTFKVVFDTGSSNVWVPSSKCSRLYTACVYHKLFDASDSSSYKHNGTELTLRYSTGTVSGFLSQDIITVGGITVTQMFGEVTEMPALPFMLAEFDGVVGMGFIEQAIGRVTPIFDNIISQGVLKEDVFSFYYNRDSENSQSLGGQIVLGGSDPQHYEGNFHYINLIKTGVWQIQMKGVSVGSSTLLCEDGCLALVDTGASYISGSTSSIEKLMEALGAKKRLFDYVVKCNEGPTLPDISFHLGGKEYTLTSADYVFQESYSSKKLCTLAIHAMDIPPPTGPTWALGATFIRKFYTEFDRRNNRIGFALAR
Put plainly: Human renin inhibition in vitro. The format is biochemical. As to the method: Compounds of Formula I were evaluated as inhibitors of human renin in an in vitro assay, as follows: This human renin inhibition test has been previously described in detail [Papaioannou et al., Clinical and Experimental Hypertension, A7(9), 1243-1257 (1985)]. Human renin was obtained from the National Institute for Biological Standards, London. An incubation mixture was prepared containing the following components: in a total volume of 0.25 mL: 100 mM Tris-acetate buffer at pH 7.4, 25×10^−6 Goldblatt units of renin, 0.05 mL of plasma from human volunteers taking oral contraceptives, 6.0 mM Na-EDTA, 2.4 mM phenylmethyl sulfonyl fluoride, 1.5 mM 8-hydroxyquinoline, 0.4 mg/mL bovine serum albumin (BSA), and 0.024 mg/mL neomycin sulfate. This mixture was incubated for two hours at 37° C. in the presence or absence of renin inhibitors. The produced angiotensin I was determined by radioimmunoassay (New England Nuclear kit). Test compounds to be assayed were dissolved in DMSO and diluted with 100 mM Tris-acetate buffer at pH 7.4 containing 0.5% BSA to the appropriate concentration. The final concentration of organic solvent in the reaction mixture was less than 1%. Control incubations at 37° C. were used to correct for effects of organic solvent on renin activity.

The next assay addresses T3, renin (Rat plasma) (Rattus norvegicus, UniProt P08424).
T3 construct: the animal plasma is the source of both the renin substrate and the renin enzyme; from tissue; host or cells: pooled rat plasma
T3 sequence (P08424 65-402): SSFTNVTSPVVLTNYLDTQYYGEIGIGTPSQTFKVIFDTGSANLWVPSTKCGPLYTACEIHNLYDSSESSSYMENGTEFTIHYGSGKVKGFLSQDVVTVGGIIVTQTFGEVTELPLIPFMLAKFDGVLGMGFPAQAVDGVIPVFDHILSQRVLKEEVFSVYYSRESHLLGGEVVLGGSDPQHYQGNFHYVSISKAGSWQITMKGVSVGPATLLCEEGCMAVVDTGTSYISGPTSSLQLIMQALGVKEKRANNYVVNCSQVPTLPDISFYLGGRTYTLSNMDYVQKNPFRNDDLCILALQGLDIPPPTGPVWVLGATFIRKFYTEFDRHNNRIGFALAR
In words: Renin inhibitor species specificity, rat plasma renin activity. Format: biochemical. As to the method:
as §1, §2, §3

SMILES strings stand for the structures.

For `C#CC[C@H](NC(=O)C(CC(=O)N(C)CCN(C)C)Cc1ccccc1)C(=O)NC(CC1CCCCC1)[C@@H](O)C(O)CC(C)C` (relative stereo) [Example 1, N1-[1R*-[[[1S,1R*-(cyclohexylmethyl)-2S*,3R*-dihydroxy-5-methylhexyl]amino]carbonyl]-3-butynyl]-N4-[2-(dimethylamino)ethyl]-N4-methyl-2S*-(phenylmethyl)butanediamide], the MABP in assay [1] (10 min (n = 3)) is given as 106 mmHg; in assay [1] (20 min (n = 3)) it was 97 mmHg; in assay [1] (30 min (n = 3)) it was 93 mmHg; in assay [1] (40 min (n = 3)), 92 mmHg; in assay [1] (50 min (n = 3)), 90 mmHg; in assay [1] (60 min (n = 3)) it was 89 mmHg. Moreover, the MABP in assay [1] (70 min (n = 3)) was determined as 87 mmHg; in assay [1] (80 min (n = 3)) it was 88 mmHg; in assay [1] (90 min (n = 3)), 89 mmHg; in assay [1] (100 min (n = 3)), 91 mmHg; in assay [1] (110 min (n = 3)), 93 mmHg; in assay [1] (120 min (n = 3)), 94 mmHg. The MABP in assay [1] (time 0 min (n = 3)) came out at 118 mmHg. Also, the “effect on blood pressure (in words)” value in assay [1] (salt-depleted, conscious marmosets) is “lowers blood pressure”. For the same compound, the “% of Total Renin Activity” value in assay [2] (0.25 nM) came to 94%; in assay [2] (1 nM) it was 75%; in assay [2] (4 nM), 42%; in assay [2] (16 nM), 11%; at renin (Rat plasma) (100 nM), 93%; at renin (Rat plasma) (400 nM) it was 76%. Besides, half-maximal inhibition at human renin (IC50) required 1 nM. Further, the “% of Total Renin Activity (range only)” value at renin (Rat plasma) (1600 nM) is “(23-34)”.

The values are drawn from patent US6515025B2, “Use of ethynyl alanine amino diol compounds to inhibit enzymatic conversion of angiotensinogen to angiotensin I” (Pharmacia Corporation, priority 1991, dated 2003).
